The values below come from patent US10968181B2, “NRF2 activator” (BIOGEN MA INC., priority 2016, dated 2021).

Assay [1] has as its system Nrf2 target genes. The assay is described as follows: Gene expression (RT-PCR) in cultured human astrocytes. The class given is cell-based. Conditions: human astrocytes treated 20 hours; compared to 0.03% DMSO vehicle; FIGS. 1A to 1D. Here is the method: (§1) Human astrocytes from ScienCell (cat #1820) were grown in astrocyte medium per supplier's instructions. Cells cultured for no more than two passages were plated in poly-D-lysine coated 96-well plates at 40,000 cells per well for gene transcription experiments and 20,000 cell per well for glutathione and cytoprotection assays.
Primary cultures of human spinal cord astrocytes were treated with test compounds for 20 hours. The cells were then rinsed in PBS, lysed, and processed for RNA using Ambion Taqman™ Cells-to-CT kit. The resulting cDNA was stored at −20° C. until analysis by real-time polymerase chain reaction (RT-PCR). The cDNA mixture from Cells-to-CT was diluted 5× before loading into PCR. This yields results similar to using 6 ng of purified cDNA. RT-PCR was performed on Life Technologies QuantStudio platform using OpenArray technique according to manufacturer's protocol using the following Taqman primers: […]
The comparative CT method was used to calculate fold changes using ThermoFisher Cloud software for PCR analysis. Samples were compared to 0.03% DMSO vehicle control.

In assay [2] the test system is human astrocytes. The assay is described as follows: Glutathione assay in cultured human astrocytes. Conditions: 20-hr exposure, FIG. 2. The class given is cell-based. Here is the method:
as §1
Intracellular glutathione was measured after a 20-hr exposure to test compounds by a two-step process. First, cells were lysed and luciferin quantitatively generated from substrate, catalyzed by glutathione-S-transferase in the presence of analyte glutathione. Then luciferin was assayed using stabilized luciferase to produce a luminescent signal proportional to the concentration of glutathione (Promega GSH-Glo, cat #V6912).

Assay [3] deals with human astrocytes. The assay is described as follows: Cytoprotection of human astrocytes against sodium arsenite. The class given is cell-based. Conditions: compound 20 hrs before arsenite, then 22 hrs, FIG. 3. As for the experimental part:
Human astrocytes from ScienCell (cat #1820) were grown in astrocyte medium per supplier's instructions. Cells cultured for no more than two passages were plated in poly-D-lysine coated 96-well plates at 40,000 cells per well for gene transcription experiments and 20,000 cell per well for glutathione and cytoprotection assays. Astrocytes were treated for 20 hrs with test compounds, then the medium was removed and replaced with serum- and supplement-free growth medium with and without 25 μM sodium arsenite. After 22 hrs., cells were washed with PBS, fixed with 4% paraformaldehyde/4% sucrose in PBS, stained with 4′,6-Diamidino-2-phenylindole dihydrochloride (DAPI) and counted by quantitative fluorescence microscopy.

For assay [4], the system named is Nrf2 target genes. The assay is described as follows: Nrf2 target gene expression (qRT-PCR) in tissues of wild type and Nrf2−/− mice. The class given is in vivo. As for the experimental part:
All procedures involving animals were performed in accordance with standards established in the Guide for the Care and Use of Laboratory Animals as adopted by the U.S. National Institutes of Health. All animal protocols were approved by the Biogen Institutional Animal Care and Use Committee, which is accredited by the Association for Assessment and Accreditation of Laboratory Animal Care International. Female 6-10 week-old wild type C57BL/6 and Nrf2−/− mice (Itoh et al, 1997; maintained at Jackson Labs, Bar Harbor, Me.) were maintained on a 12-hour light/dark cycle and given access to food and water ad libitum.
Compound 12-Ent1 (25 mg/kg) was administered as a single, oral dose in a vehicle of Solutol HS-15/polyethylene glycol/ethanol/water (10/10/10/70) to C57BL/6 (wt) and Nrf2−/− mice. Brain, jejunum, kidney and spleen were collected at 2 or 6 hours after dosing and snap frozen for RNA analysis of Nrf2 target genes.
For RNA preparation, frozen tissues were placed in 2 mL RNAse-free 96-well blocks with 1.5 ml QIAzol Lysis Reagent (QIAgen) and a 3.2 mm stainless steel bead (BioSpec Products, Bartlesville, Okla.). Tissues were disrupted for four cycles of 45 seconds in a Mini-Beadbeater (Biospec Products). RNA was extracted in chloroform and the aqueous phase was mixed with an equal volume of 70% ethanol. Extracted RNA was applied to RNeasy 96 plates and purified by the spin method according to the manufacturer's protocol (RNeasy 96 Universal Tissue Protocol, QIAgen, Hilden Germany).
qRT-PCR was performed from total mRNA isolated from tissues and reverse-transcribed into cDNA according to manufacturer protocols (Life Technologies, Carlsbad, Calif.). 20× Taqman target gene mouse primer/probe sets (see table below) were mixed with cDNA and 2× Taqman Universal Master Mix to a final volume of 20 uL. All final reactions contained 100 ng of cDNA, 900 nM of each primer, and 250 nM TaqMan® probes and were cycled on a QuantStudio™ 12K Flex system (Life Technologies). All samples were measured in triplicate using beta actin as a normalizing gene. Final analysis was performed using the comparative CT method to calculate fold changes and samples were normalized relative to wild type vehicle control at each time point.
Background: In qPCR the cycle at which signal appears reflects the starting amount.

The next assay relates to HUDEP cells. In words: HbF protein ELISA in cultured HUDEP cells. The class given is cell-based, human. Conditions: differentiating HUDEP cells, 72 hours, compared to DMSO; FIG. 8. Here is the method:
Human Umbilical Derived Erythroid Cells (HUDEP; from Riken Institute, Japan) were cultured in Stemspan SFEM medium (Stemcell Technologies, Vancouver, Canada) supplemented with erythroid cytokines and growth factors. Compound incubations were performed in HUDEP cells cultured in differentiation media.
Differentiating HUDEP cells were cultured with increasing concentrations of 12-Ent1 or equivalent DMSO concentrations for 72 hours and the levels of HbF protein was measured using a commercially available ELISA specific for human HbF (Bethyl Laboratories, TX) based on manufacturer's protocol.

The next assay has as its system γ-globin gene. The assay is described as follows: γ-globin gene induction in spleen of Townes mice. Type of assay: in vivo, Townes SCD mouse. Particulars: Townes SS mice, oral single dose 10, 25 or 50 mg/kg or two doses of 25 mg/kg; at least at the 24 hour time point; FIGS. 9A-9D and 11. From the text: (§2) All animal experiments conformed to the guidance issued by the Biogen Institutional Animal Care and Use Committee and are described in approved protocols. The SCD mouse strain used in the in vivo studies is the Townes SCD mouse [Wu L C, Sun C W, Ryan™, Pawlik K M, Ren J, Townes™. Correction of sickle cell disease by homologous recombination in embryonic stem cells. Blood. 2006, 108(4):1183-8]. […] These mice harboring the sickle cell mutations in the hemoglobin β-globins chain show the presence of sickle cell disease characterized by abnormally low hemoglobin, circulating sickle shaped erythrocytes, varying degrees of damage of internal organs such as spleen, liver, and kidney. Male and female Townes SS mice aged 8 to 12 weeks were used for studies described here. […]
(§3) Frozen spleens were placed at room temperature. […] Extracted RNA was then quantitated using a Nanodrop and 1 μg of total RNA was converted to cDNA using VILO Mastermix kit according to manufacturer's protocol.
(§4) cDNA prepared from RNA isolated from tissue samples was used to determine gene expression levels of using Taqman based real time PCR (Life Technologies, ThermoFisher Scientific). […] Results were analyzed using the 7500 software version 2.0.5 and the relative levels of transcripts were measured with GAPDH as the endogenous housekeeping gene control using the 2^−ΔΔCt relative quantification method.

For the next assay, the system named is NQO-1 gene. In words: NQO-1 gene induction in spleen of Townes mice. The class given is in vivo, Townes SCD mouse. Conditions: Townes SS mice, oral single dose 10 or 50 mg/kg or two doses of 25 mg/kg; at least at the 6 hour time point; FIGS. 10A-10C and 12.
Description: as §2, §3, §4

Setting [5] is: wild type vs Nrf2−/− mice, 25 mg/kg oral.

Turning to `CC(=O)N1CC[C@@H]2C(C)(C)C(=O)C(C#N)=C[C@@]2(C)C1` (single isomer, unassigned) [Compound 12-Ent1], the “transcription of Nrf2 target genes, including GCLC, HMOX1, OSGIN1 and NQO1” value in the assay on Nrf2 target genes [1] was “induces transcription”. The intracellular glutathione entry in the assay with human astrocytes [2] is given as “increases”. In addition, the “protection from oxidative stress-induced cell death caused by 25 μM sodium arsenite” value with human astrocytes [3] was “protects cells”. For the same molecule, the “expression of Akr1b8, Nqo1, Hmox1 and Osgin1 in kidney” value in the assay with Nrf2 target genes [4] (25 mg/kg single oral dose, 2 hours and 6 hours after dosing, FIGS. 4A to 4D) is given as “increases”. The “expression of Akr1b8, Nqo1, Hmox1 and Osgin1 in Jejunum” value with Nrf2 target genes [4] (25 mg/kg single oral dose, 2 hours and 6 hours after dosing, FIGS. 5A to 5D) was “increases”. The “expression of Nqo1, Hmox1 and Osgin1 in spleen” value with Nrf2 target genes [4] (25 mg/kg single oral dose, 2 hours and 6 hours after dosing, FIGS. 6A to 6D) is reported as “increases”. In the assay with Nrf2 target genes [4] (25 mg/kg single oral dose, 2 hours and 6 hours after dosing, FIGS. 7A to 7D), the “expression of Nqo1, Hmox1 and Osgin1 in brain” value is listed as “increases”. Further, in the assay with Nrf2 target genes [4] (setting [5]), the “Nrf2 dependence of the gene expression increases in Jejunum” value is “Nrf2-dependent”, the “Nrf2 dependence of the gene expression increases in brain” value was “Nrf2-dependent”, the “Nrf2 dependence of the gene expression increases in kidney” value is given as “Nrf2-dependent” and the “Nrf2 dependence of the gene expression increases in spleen” value is on record as “Nrf2-dependent”. The “HbF protein in cultured HUDEP cells” value in the assay on HUDEP cells was “induces”. Moreover, the “human γ-globin gene in spleen” value with γ-globin gene is listed as “induces”. Also, the “NQO-1 gene in spleen” value in the assay on NQO-1 gene is reported as “induces”.
